Tested on: MV-4-11 cells
Experiment: Gene expression microarray analysis (Affymetrix PrimeView) and GSEA
Format: cell-based, human
Design: RFU PODN (11730768_x_at) / Fold change /veh PODN (11730768_x_at) / RFU LINC00158 (11744669_a_at) / Fold change /veh LINC00158 (11744669_a_at) / RFU DUSP10 (11751237_a_at) / Fold change /veh DUSP10 (11751237_a_at) / RFU ID3 (11757404_x_at) / Fold change /veh ID3 (11757404_x_at) / RFU PLEKHG5 (11737974_s_at) / Fold change /veh PLEKHG5 (11737974_s_at) / RFU LRRC4B (11730491_at) / Fold change /veh LRRC4B (11730491_at) / RFU GIMAP4 (11747438_a_at) / Fold change /veh GIMAP4 (11747438_a_at) / RFU KRT8 (11758183_x_at) / Fold change /veh KRT8 (11758183_x_at) / RFU CNN1 (11734310_a_at) / Fold change /veh CNN1 (11734310_a_at) / RFU VPS37D (11726825_at) / Fold change /veh VPS37D (11726825_at) / RFU C10orf10 (11716522_x_at) / Fold change /veh C10orf10 (11716522_x_at) / RFU KIR2DL2 /// KIR2DL4 /// KIR2DL5A /// KIR2DL5B /// KIR2DS1 /// KIR2DS2 /// KIR2DS3 /// KIR2DS4 /// KIR3DL3 /// KIR3DL3 /// KIR3DS1 (11738374_at) / Fold change /veh KIR2DL2 /// KIR2DL4 /// KIR2DL5A /// KIR2DL5B /// KIR2DS1 /// KIR2DS2 /// KIR2DS3 /// KIR2DS4 /// KIR3DL3 /// KIR3DL3 /// KIR3DS1 (11738374_at) / RFU C1QL1 (11718748_at) / Fold change /veh C1QL1 (11718748_at) / RFU TMPRSS4 (11747572_a_at) / Fold change /veh TMPRSS4 (11747572_a_at) / RFU HAMP (11756126_x_at) / Fold change /veh HAMP (11756126_x_at) / RFU RNFT2 (11725882_a_at) / Fold change /veh RNFT2 (11725882_a_at) / RFU NR4A2 (11747474_a_at) / Fold change /veh NR4A2 (11747474_a_at) / RFU ABCC12 (11746883_a_at) / Fold change /veh ABCC12 (11746883_a_at) / RFU TMEM136 (11760407_x_at) / Fold change /veh TMEM136 (11760407_x_at) / RFU CLDN22 /// WWC2 (11732394_at) / Fold change /veh CLDN22 /// WWC2 (11732394_at) / RFU HLA-DPB1 (11760878_x_at) / Fold change /veh HLA-DPB1 (11760878_x_at) / RFU SPINT1 (11716480_a_at) / Fold change /veh SPINT1 (11716480_a_at) / RFU GAP43 (11754022_s_at) / Fold change /veh GAP43 (11754022_s_at) / RFU A4GNT (11735810_at) / Fold change /veh A4GNT (11735810_at) / RFU PRB3 (11715151_x_at) / Fold change /veh PRB3 (11715151_x_at) / RFU TUBB4B (11761932_at) / Fold change /veh TUBB4B (11761932_at) / RFU CAPN14 (11732068_a_at) / Fold change /veh CAPN14 (11732068_a_at) / RFU TMCC2 (11721928_a_at) / Fold change /veh TMCC2 (11721928_a_at) / RFU IRGQ (11745062_a_at) / Fold change /veh IRGQ (11745062_a_at) / RFU FAM174B (11720279_a_at) / Fold change /veh FAM174B (11720279_a_at) / RFU TMPRSS4 (11748680_a_at) / Fold change /veh TMPRSS4 (11748680_a_at) / RFU FAM212B (11763350_a_at) / Fold change /veh FAM212B (11763350_a_at) / RFU PLEKHG5 (11743358_a_at) / Fold change /veh PLEKHG5 (11743358_a_at) / RFU ZSCAN30 (11745921_a_at) / Fold change /veh ZSCAN30 (11745921_a_at) / RFU CMKLR1 (11741424_a_at) / Fold change /veh CMKLR1 (11741424_a_at) / RFU LOC101060620 /// MAPK8IP1 (11723275_at) / Fold change /veh LOC101060620 /// MAPK8IP1 (11723275_at) / RFU SPTSSB (11747773_x_at) / Fold change /veh SPTSSB (11747773_x_at) / RFU PRSS12 (11739890_at) / Fold change /veh PRSS12 (11739890_at) / RFU BIN1 (11741810_x_at) / Fold change /veh BIN1 (11741810_x_at) / RFU WNT11 (11732464_a_at) / Fold change /veh WNT11 (11732464_a_at) / RFU C10orf10 (11716521_a_at) / Fold change /veh C10orf10 (11716521_a_at) / RFU C5orf56 (11738089_at) / Fold change /veh C5orf56 (11738089_at) / RFU CYB561 (11721691_x_at) / Fold change /veh CYB561 (11721691_x_at) / RFU ANKRD19P (11752326_a_at) / Fold change /veh ANKRD19P (11752326_a_at) / RFU OR2T12 /// OR2T33 /// OR2T8 (11738714_s_at) / Fold change /veh OR2T12 /// OR2T33 /// OR2T8 (11738714_s_at) / RFU VCAN (11748164_a_at) / Fold change /veh VCAN (11748164_a_at) / RFU JSRP1 (11732532_at) / Fold change /veh JSRP1 (11732532_at) / RFU KRTAP10-11 (11738290_x_at) / Fold change /veh KRTAP10-11 (11738290_x_at) / RFU MYO3A (11730013_a_at) / Fold change /veh MYO3A (11730013_a_at) / RFU EBF3 (11725865_a_at) / Fold change /veh EBF3 (11725865_a_at) / RFU CAMK2N1 (11719241_x_at) / Fold change /veh CAMK2N1 (11719241_x_at) / RFU C5orf56 (11738088_a_at) / Fold change /veh C5orf56 (11738088_a_at) / RFU OLFML3 (11715873_a_at) / Fold change /veh OLFML3 (11715873_a_at) / RFU LOC100653217 /// NTM (11731650_a_at) / Fold change /veh LOC100653217 /// NTM (11731650_a_at) / RFU MAPK11 (11762145_a_at) / Fold change /veh MAPK11 (11762145_a_at) / RFU FIZ1 (11724087_x_at) / Fold change /veh FIZ1 (11724087_x_at) / RFU OASL (11726364_x_at) / Fold change /veh OASL (11726364_x_at) / RFU SOX15 (11748057_x_at) / Fold change /veh SOX15 (11748057_x_at) / RFU CD79A (11719716_a_at) / Fold change /veh CD79A (11719716_a_at) / RFU HIST1H1D (11736915_at) / Fold change /veh HIST1H1D (11736915_at) / RFU CASKIN2 (11723855_a_at) / Fold change /veh CASKIN2 (11723855_a_at) / RFU LOC730098 (11760151_x_at) / Fold change /veh LOC730098 (11760151_x_at) / RFU OR4N2 (11742367_at) / Fold change /veh OR4N2 (11742367_at) / RFU PRRT2 (11749266_a_at) / Fold change /veh PRRT2 (11749266_a_at) / RFU SNX32 (11753110_a_at) / Fold change /veh SNX32 (11753110_a_at) / RFU CDHR5 (11726645_a_at) / Fold change /veh CDHR5 (11726645_a_at) / RFU RCAN1 (11760418_a_at) / Fold change /veh RCAN1 (11760418_a_at) / RFU FAM167A (11723789_a_at) / Fold change /veh FAM167A (11723789_a_at) / RFU FAM26E (11764081_at) / Fold change /veh FAM26E (11764081_at) / RFU ISYNA1 (11749810_s_at) / Fold change /veh ISYNA1 (11749810_s_at) / RFU ACY1 (11761880_at) / Fold change /veh ACY1 (11761880_at) / RFU 11764098_at / Fold change /veh 11764098_at / RFU SAMD14 (11745864_x_at) / Fold change /veh SAMD14 (11745864_x_at) / RFU NPB (11741838_a_at) / Fold change /veh NPB (11741838_a_at) / RFU TMPRSS6 (11731388_a_at) / Fold change /veh TMPRSS6 (11731388_a_at) / RFU KRTAP10-2 (11738614_at) / Fold change /veh KRTAP10-2 (11738614_at) / RFU ARHGAP8 /// PRR5-ARHGAP8 (11727945_x_at) / Fold change /veh ARHGAP8 /// PRR5-ARHGAP8 (11727945_x_at) / RFU KRTAP5-7 /// NADSYN1 (11734609_at) / Fold change /veh KRTAP5-7 /// NADSYN1 (11734609_at) / RFU RASL12 (11751679_a_at) / Fold change /veh RASL12 (11751679_a_at) / RFU CDKN2B (11736163_a_at) / Fold change /veh CDKN2B (11736163_a_at) / RFU PRF1 (11729649_at) / Fold change /veh PRF1 (11729649_at) / RFU, ZNF638 /// ZNF638-IT1 / Fold change vs veh, ZNF638 /// ZNF638-IT1 / RFU, PANK3 / Fold change vs veh, PANK3 / RFU, SH3YL1 / Fold change vs veh, SH3YL1 / RFU, ZEB2 / Fold change vs veh, ZEB2 / RFU, NRIP1 / Fold change vs veh, NRIP1 / RFU, PTTG1IP / Fold change vs veh, PTTG1IP / RFU, CAPN2 / Fold change vs veh, CAPN2 / RFU, MED14 / Fold change vs veh, MED14 / RFU, SNORA58 / Fold change vs veh, SNORA58 / RFU, C1orf63 / Fold change vs veh, C1orf63 / RFU, LRRFIP1 / Fold change vs veh, LRRFIP1 / RFU, NDUFAF7 / Fold change vs veh, NDUFAF7 / RFU, SLC12A2 / Fold change vs veh, SLC12A2 / RFU, IBTK / Fold change vs veh, IBTK / RFU, ESF1 / Fold change vs veh, ESF1 / Fold change vs veh, TMEM50B / RFU, TAOK1 / Fold change vs veh, TAOK1 / RFU, ACBD3 / Fold change vs veh, ACBD3 / RFU, TMA16 / Fold change vs veh, TMA16 / RFU, RWDD3 / Fold change vs veh, RWDD3 / RFU, BCAT1 / Fold change vs veh, BCAT1 / RFU, EDEM3 / Fold change vs veh, EDEM3 / RFU, TMEM33 / Fold change vs veh, TMEM33 / RFU, WDR75 / Fold change vs veh, WDR75 / RFU, AHCTF1 / Fold change vs veh, AHCTF1 / RFU, TFRC / Fold change vs veh, TFRC / RFU, ZDHHC17 / Fold change vs veh, ZDHHC17 / RFU, NOM1 / Fold change vs veh, NOM1 / RFU, ARL8B / Fold change vs veh, ARL8B / RFU, ZBTB11 / Fold change vs veh, ZBTB11 / RFU, TAMM41 / Fold change vs veh, TAMM41 / RFU, KIAA1704 /// LOC100996395 / Fold change vs veh, KIAA1704 /// LOC100996395 / RFU, ING1 / Fold change vs veh, ING1 / RFU, TRMT61B / Fold change vs veh, TRMT61B / RFU, FUBP3 / Fold change vs veh, FUBP3 / RFU, TP53 / Fold change vs veh, TP53 / RFU, TNKS2 / Fold change vs veh, TNKS2 / RFU, ZFP14 / Fold change vs veh, ZFP14 / RFU, ACTR2 / Fold change vs veh, ACTR2 / RFU, PPP3R1 / Fold change vs veh, PPP3R1 / RFU, PIK3R1 / Fold change vs veh, PIK3R1 / RFU, HNRNPA1 / Fold change vs veh, HNRNPA1 / RFU, RNF170 / Fold change vs veh, RNF170 / RFU, ZNF28 / Fold change vs veh, ZNF28 / RFU, RNGTT / Fold change vs veh, RNGTT / RFU, OGT / Fold change vs veh, OGT / RFU, BRD1 / Fold change vs veh, BRD1 / RFU, MARS / Fold change vs veh, MARS / RFU, ZNF655 / Fold change vs veh, ZNF655 / RFU, FAHD1 / Fold change vs veh, FAHD1 / RFU, BDP1 / Fold change vs veh, BDP1 / RFU, LRRCC1 / Fold change vs veh, LRRCC1 / RFU, ARID1A / Fold change vs veh, ARID1A / RFU, ZNF146 / Fold change vs veh, ZNF146 / RFU, ZNF330 / Fold change vs veh, ZNF330 / RFU, GPN3 / Fold change vs veh, GPN3 / RFU, C9orf123 / Fold change vs veh, C9orf123 / RFU, N4BP2L2 / Fold change vs veh, N4BP2L2 / RFU, ARFIP1 / Fold change vs veh, ARFIP1 / RFU, FAM179B / Fold change vs veh, FAM179B / RFU, BCL10 / Fold change vs veh, BCL10 / RFU, UHRF1BP1L / Fold change vs veh, UHRF1BP1L / RFU, BET1 / Fold change vs veh, BET1 / RFU, CNOT2 / Fold change vs veh, CNOT2 / RFU, ZNF268 / Fold change vs veh, ZNF268 / Fold change vs veh, ZNF507 / RFU, DGCR2 / Fold change vs veh, DGCR2 / RFU, WDSUB1 / Fold change vs veh, WDSUB1 / Fold change vs veh, HSP90B1 /// MIR3652 / RFU, ADSS / Fold change vs veh, ADSS / RFU, GK / Fold change vs veh, GK / RFU, ZNF148 / Fold change vs veh, ZNF148 / RFU, TAF9 / Fold change vs veh, TAF9 / RFU, SLC1A5 / Fold change vs veh, SLC1A5 / RFU, SLMO2 / Fold change vs veh, SLMO2 / RFU, ABCC4 / Fold change vs veh, ABCC4 / RFU, LOC101060439 /// RAP1B / Fold change vs veh, LOC101060439 /// RAP1B / RFU, RFX7 / Fold change vs veh, RFX7 / RFU, GTPBP10 / Fold change vs veh, GTPBP10 / RFU, CNEP1R1 / Fold change vs veh, CNEP1R1 / RFU, BIVM-ERCC5 /// ERCC5 / Fold change vs veh, BIVM-ERCC5 /// ERCC5 / RFU, ILF3 / Fold change vs veh, ILF3 / RFU 11762660_at / Fold change /veh 11762660_at / RFU VCAN (11757783_s_at) / Fold change /veh VCAN (11757783_s_at) / RFU DDX43 (11728927_at) / Fold change /veh DDX43 (11728927_at) / RFU KRT8 (11758188_x_at) / Fold change /veh KRT8 (11758188_x_at) / RFU NKD1 (11759106_at) / Fold change /veh NKD1 (11759106_at) / RFU SRD5A1 (11742802_a_at) / Fold change /veh SRD5A1 (11742802_a_at) / RFU TPSAB1 /// TPSB2 (11721975_s_at) / Fold change /veh TPSAB1 /// TPSB2 (11721975_s_at) / RFU GSTM3 (11746129_a_at) / Fold change /veh GSTM3 (11746129_a_at) / RFU IL23R (11737362_x_at) / Fold change /veh IL23R (11737362_x_at) / RFU TMEM51 (11727254_a_at) / Fold change /veh TMEM51 (11727254_a_at) / RFU PIWIL2 (11732686_x_at) / Fold change /veh PIWIL2 (11732686_x_at) / RFU ORM1 (11744905_x_at) / Fold change /veh ORM1 (11744905_x_at) / RFU CCDC152 (11743942_at) / Fold change /veh CCDC152 (11743942_at) / RFU ECM1 (11717891_a_at) / Fold change /veh ECM1 (11717891_a_at) / RFU IL23R (11748794_a_at) / Fold change /veh IL23R (11748794_a_at) / RFU TNFAIP8L3 (11732012_x_at) / Fold change /veh TNFAIP8L3 (11732012_x_at) / RFU MBOAT4 (11741988_at) / Fold change /veh MBOAT4 (11741988_at) / RFU 11764193_at / Fold change /veh 11764193_at / RFU TMEM53 (11763286_at) / Fold change /veh TMEM53 (11763286_at) / RFU MAGEB2 (11727129_at) / Fold change /veh MAGEB2 (11727129_at) / RFU TMEM200A (11744735_a_at) / Fold change /veh TMEM200A (11744735_a_at) / RFU CCDC152 (11751479_a_at) / Fold change /veh CCDC152 (11751479_a_at) / RFU FAM211A (11726209_a_at) / Fold change /veh FAM211A (11726209_a_at) / RFU RGS16 (11746705_a_at) / Fold change /veh RGS16 (11746705_a_at) / RFU VCAN (11755009_s_at) / Fold change /veh VCAN (11755009_s_at) / RFU RHOB (11743442_s_at) / Fold change /veh RHOB (11743442_s_at) / RFU RGS16 (11720943_a_at) / Fold change /veh RGS16 (11720943_a_at) / RFU RGS16 (11720944_at) / Fold change /veh RGS16 (11720944_at) / RFU, VPS4B / Fold change vs veh, VPS4B / RFU, CREB1 / Fold change vs veh, CREB1 / RFU, DNAJC13 / Fold change vs veh, DNAJC13 / RFU, GNAQ / Fold change vs veh, GNAQ / RFU, CDK5R1 / Fold change vs veh, CDK5R1 / RFU, ZRANB3 / Fold change vs veh, ZRANB3 / RFU, CUL4A / Fold change vs veh, CUL4A / RFU, CCNY / Fold change vs veh, CCNY / RFU, UFL1 / Fold change vs veh, UFL1 / RFU, COG3 / Fold change vs veh, COG3 / RFU, DIAPH2 / Fold change vs veh, DIAPH2 / RFU, SKA2 / Fold change vs veh, SKA2 / RFU, AFF3 / Fold change vs veh, AFF3 / RFU, LMF1 / Fold change vs veh, LMF1 / RFU, IPO11 / Fold change vs veh, IPO11 / RFU, DFFB / Fold change vs veh, DFFB / RFU, FOXP1 / Fold change vs veh, FOXP1 / RFU, CARD8 / Fold change vs veh, CARD8 / RFU, STRN3 / Fold change vs veh, STRN3 / RFU, ADK / Fold change vs veh, ADK / RFU, RASSF2 / Fold change vs veh, RASSF2 / RFU, WIPF1 / Fold change vs veh, WIPF1 / RFU, LARP1B / Fold change vs veh, LARP1B / RFU, RASA1 / Fold change vs veh, RASA1 / RFU, RB1 / Fold change vs veh, RB1 / RFU, PPFIA1 / Fold change vs veh, PPFIA1 / RFU, MAT2A / Fold change vs veh, MAT2A / RFU, CCT5 / Fold change vs veh, CCT5 / RFU, WDR92 / Fold change vs veh, WDR92 / RFU, CUX1 / Fold change vs veh, CUX1 / RFU, TTC7A / Fold change vs veh, TTC7A / RFU, TMEM135 / Fold change vs veh, TMEM135 / RFU, DEPTOR / Fold change vs veh, DEPTOR / RFU, CPM / Fold change vs veh, CPM / RFU, DNAJB6 / Fold change vs veh, DNAJB6 / RFU, CACNA2D3 / Fold change vs veh, CACNA2D3 / RFU, DTX4 / Fold change vs veh, DTX4 / RFU, TFCP2 / Fold change vs veh, TFCP2 / RFU, GMCL1 /// GMCL1P1 / Fold change vs veh, GMCL1 /// GMCL1P1 / RFU, AEBP2 / Fold change vs veh, AEBP2 / RFU, SNHG1 /// SNORD22 /// SNORD25 /// SNORD26 /// SNORD27 /// SNORD28 /// SNORD29 /// SNORD31 / Fold change vs veh, SNHG1 /// SNORD22 /// SNORD25 /// SNORD26 /// SNORD27 /// SNORD28 /// SNORD29 /// SNORD31 / Fold change (Aza/veh), C12orf56 (ProbeSet 11735607_a_at) / Fold change (ACY-1035/veh), C12orf56 (ProbeSet 11735607_a_at) / Fold change (Aza/veh), FGFR1OP (ProbeSet 11751329_s_at) / Fold change (ACY-1035/veh), FGFR1OP (ProbeSet 11751329_s_at) / Fold change (Aza/veh), VPS36 (ProbeSet 11739960_a_at) / Fold change (ACY-1035/veh), VPS36 (ProbeSet 11739960_a_at) / RFU SYPL1 (11715823_x_at) / Fold change /veh SYPL1 (11715823_x_at) / RFU IGFBP7 (11715501_s_at) / Fold change /veh IGFBP7 (11715501_s_at) / RFU REEP3 (11722064_at) / Fold change /veh REEP3 (11722064_at) / RFU IGLL1 (11728026_x_at) / Fold change /veh IGLL1 (11728026_x_at): dose or concentration left out as unconfirmed
Details: MV-4-11 cells, 48 hours

Nc1ccc(-c2cccs2)cc1NC(=O)c1ccc2c(c1)cc(C1CC1)n2CCN1CCOCC1 [ACY-1035]
Fold change /veh 11764193_at: 1.19
